Structures can show the parent of a compound that is named as a salt.

T1 sequence (P37288 whole entry): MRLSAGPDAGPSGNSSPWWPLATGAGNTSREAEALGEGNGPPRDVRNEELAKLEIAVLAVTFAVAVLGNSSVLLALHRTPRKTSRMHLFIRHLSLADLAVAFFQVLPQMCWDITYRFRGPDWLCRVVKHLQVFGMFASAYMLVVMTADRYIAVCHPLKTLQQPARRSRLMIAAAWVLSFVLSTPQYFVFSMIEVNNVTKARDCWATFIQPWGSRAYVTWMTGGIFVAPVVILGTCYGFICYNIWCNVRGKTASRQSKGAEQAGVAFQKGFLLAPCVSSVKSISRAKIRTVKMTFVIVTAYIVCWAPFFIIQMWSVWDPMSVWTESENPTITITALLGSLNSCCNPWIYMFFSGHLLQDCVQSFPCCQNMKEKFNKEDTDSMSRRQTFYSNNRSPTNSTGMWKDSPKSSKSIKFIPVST

One test addresses T1, human V1a receptor (Homo sapiens, UniProt P37288).
T1 construct: expressed in transfected cells; host or cells: HEK293 cells, transiently transfected; membranes prepared
As to the kind of experiment: human V1a receptor binding (3H-Vasopressin SPA, HEK293 membranes).
Conditions: not given
On the procedure:
The human V1a receptor was cloned by RT-PCR from total human liver RNA. The coding sequence was subcloned in an expression vector after sequencing to confirm the identity of the amplified sequence. […] Cell membranes were prepared from HEK293 cells transiently transfected with the expression vector and grown in 20 liter fermenters with the following protocol.
50 g of cells are resuspended in 30 ml freshly prepared ice cold Lysis buffer (50 mM HEPES, 1 mM EDTA, 10 mM magnesium dichloride adjusted to pH=7.4+complete cocktail of protease inhibitor (Roche Diagnostics)). Homogenized with Polytron for 1 min and sonicated on ice for 2×2 minutes at 80% intensity (Vibracell sonicator). The preparation is centrifuged 20 min at 500 g at 4° C., the pellet is discarded and the supernatant centrifuged 1 hour at 43,000 g at 4° C. (19,000 rpm). The pellet is resuspended in 12.5 ml Lysis buffer+12.5 ml sucrose 20% and homogenized using a Polytron for 1-2 min. The protein concentration is determined by the Bradford method and aliquots are stored at −80° C. until use. For binding studies 60 mg Yttrium silicate SPA beads (Amersham®) are mixed with an aliquot of membrane in binding buffer (50 mM Tris, 120 mM sodium chloride, 5 mM potassium chloride, 2 mM calcium dichloride, 10 mM magnesium dichloride) for 15 minutes with mixing. 50 μl of bead/membrane mixture is then added to each well of a 96 well plate, followed by 50 μl of 4 nM 3H-Vasopressin (American Radiolabeled Chemicals). For total binding measurement 100 μl of binding buffer are added to the respective wells, for non-specific binding 100 μl of 8.4 mM cold vasopressin and for compound testing 100 μl of a serial dilution of each compound in 2% dimethyl sulfoxide. The plate is incubated 1 h at room temperature, centrifuged 1 min at 1000 g and counted on a Packard Top-Count. Non-specific binding counts are subtracted from each well and data is normalized to the maximum specific binding set at 100%. To calculate an IC50 the curve is fitted using a non-linear regression model (XLfit) and the Ki is calculated using the Cheng-Prussoff equation.
The molecule `CC(C)(C)OC(=O)N1Cc2cc(Cl)ccc2-n2c(nnc2[C@H]2CC[C@H](c3cccc(C#N)c3)CC2)C1` [Example 25, trans-8-Chloro-1-[4-(3-cyano-phenyl)-cyclohexyl]-4H,6H-2,3,5,10b-tetraaza-benzo[e]azulene-5-carboxylic acid tert-butyl ester] gave a Ki of 7.08 nM.

Staying with this test, now noted: 3H-Vasopressin displacement, membranes of HEK293 cells transiently transfected with human V1a; Ki from IC50 by Cheng-Prussoff; read-out: pKi (hV1a) (converted).
Take `N#Cc1cccc([C@H]2CC[C@H](c3nnc4n3-c3ccc(Cl)cc3CNC4)CC2)c1` [Example 26, trans-3-[4-(8-Chloro-5,6-dihydro-4H-2,3,5,10b-tetraaza-benzo[e]azulen-1-yl)-cyclohexyl]-benzonitrile hydrochloride]: the Ki was 32.4 nM.

Consider `CN1Cc2cc(Cl)ccc2-n2c(nnc2[C@H]2CC[C@H](c3cccc(C#N)c3)CC2)C1` [Example 27, trans-3-[4-(8-Chloro-5-methyl-5,6-dihydro-4H-2,3,5,10b-tetraaza-benzo[e]azulen-1-yl)-cyclohexyl]-benzonitrile], for which the Ki was 2.69 nM.

For `CC(=O)N1Cc2cc(Cl)ccc2-n2c(nnc2[C@H]2CC[C@H](c3ccccc3)CC2)C1` [Example 28, trans-1-[8-Chloro-1-(4-phenyl-cyclohexyl)-4H,6H-2,3,5,10b-tetraaza-benzo[e]azulen-5-yl]-ethanone], the Ki was 1.29 nM.

For `CS(=O)(=O)N1Cc2cc(Cl)ccc2-n2c(nnc2[C@H]2CC[C@H](c3ccccc3)CC2)C1` [Example 29, trans-8-Chloro-5-methanesulfonyl-1-(4-phenyl-cyclohexyl)-5,6-dihydro-4H-2,3,5,10b-tetraaza-benzo[e]azulene], the Ki was 1.82 nM.

As for `CC(C)N1Cc2cc(Cl)ccc2-n2c(nnc2[C@H]2CC[C@H](c3ccccc3)CC2)C1` [Example 30, trans-8-Chloro-5-isopropyl-1-(4-phenyl-cyclohexyl)-5,6-dihydro-4H-2,3,5,10b-tetraaza-benzo[e]azulene], the Ki was 1.91 nM.

For `Clc1ccc2c(c1)CN(Cc1ccccn1)Cc1nnc([C@H]3CC[C@H](c4ccccc4)CC3)n1-2` [Example 31, trans-8-Chloro-1-(4-phenyl-cyclohexyl)-5-pyridin-2-ylmethyl-5,6-dihydro-4H-2,3,5,10b-tetraaza-benzo[e]azulene], the Ki was 2.4 nM.

As to `OCCN1Cc2cc(Cl)ccc2-n2c(nnc2[C@H]2CC[C@H](c3ccccc3)CC2)C1` [Example 32, trans-2-[8-Chloro-1-(4-phenyl-cyclohexyl)-4H,6H-2,3,5,10b-tetraaza-benzo[e]azulen-5-yl]-ethanol], the Ki is 1.41 nM.

With `Clc1ccc2c(c1)CN(c1ccccn1)Cc1nnc([C@H]3CC[C@H](c4ccccc4)CC3)n1-2` [Example 33, trans-8-Chloro-1-(4-phenyl-cyclohexyl)-5-pyridin-2-yl-5,6-dihydro-4H-2,3,5,10b-tetraaza-benzo[e]azulene], the Ki is 8.91 nM.

For the origin of these results see patent US8420633B2 (Hoffmann-La Roche Inc., priority 2010, dated 2013).
